doi:10.1101/139675v1, “Purification of the mammalian NgBR/hCIT cis-prenyltransferase complex: Identification of a conserved carboxyterminal RxG motif crucial for enzymatic activity” (biorxiv, 2017)

Biological target: T1, NgBR/hCIT complex (hcisPT) (Homo sapiens, UniProt Q86SQ9+Q96E22)
T1 construct: gene DHDDS; full-length; N-terminal Strep-tag on hCIT, internal 6-His tag after Gly31 of NgBR; bicistronic vector in Expi293F
T1 sequence (Q86SQ9 1-333): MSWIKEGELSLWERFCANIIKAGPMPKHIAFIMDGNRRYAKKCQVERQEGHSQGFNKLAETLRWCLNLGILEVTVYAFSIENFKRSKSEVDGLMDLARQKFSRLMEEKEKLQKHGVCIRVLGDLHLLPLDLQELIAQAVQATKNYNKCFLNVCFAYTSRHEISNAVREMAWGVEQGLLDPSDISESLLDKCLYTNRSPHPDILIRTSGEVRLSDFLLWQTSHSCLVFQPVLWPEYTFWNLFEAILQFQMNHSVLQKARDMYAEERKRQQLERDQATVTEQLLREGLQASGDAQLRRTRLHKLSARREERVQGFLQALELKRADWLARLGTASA
T1 sequence (Q96E22 1-293): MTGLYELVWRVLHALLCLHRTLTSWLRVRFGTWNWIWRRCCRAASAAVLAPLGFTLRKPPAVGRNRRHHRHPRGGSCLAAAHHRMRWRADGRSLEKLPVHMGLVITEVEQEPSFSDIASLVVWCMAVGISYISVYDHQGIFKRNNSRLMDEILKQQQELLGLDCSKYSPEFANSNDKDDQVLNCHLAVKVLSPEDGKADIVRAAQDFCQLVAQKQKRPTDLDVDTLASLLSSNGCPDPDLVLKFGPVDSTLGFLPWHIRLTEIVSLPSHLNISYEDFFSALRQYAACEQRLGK
Assay: […]-IPP incorporation, Michaelis-Menten fit
Type: biochemical
Settings: 50 mM Tris-HCl pH 8, 1 mM MgCl2, 1% phosphatidylinositol, 37 C

For CC(C)=CCC/C(C)=C/CC/C(C)=C/COP(=O)(O)OP(=O)(O)O [FPP], the Km (100 uM IPP, 0.1-50 uM FPP) was “steady state kinetic parameters were measured for complexes containing the WT subunits, hCIT/NgBR”.
For C=C(C)CCOP(=O)(O)OP(=O)(O)O [IPP], the Km (50 uM FPP, 0.1-400 uM IPP, labelled compound) was “steady state kinetic parameters were measured for complexes containing the WT subunits, hCIT/NgBR”.
